# Test results: patent US10294202B2, “Pyrrolidinones as herbicides” (FMC Corporation, priority 2013, dated 2019)
# Key:
# ragweed = test: Test A pre-/postemergence herbicide test; assay type: in vivo, Ambrosia elatior; settings: for Plant response rating, Ragweed: 0 to 100 scale
# Outline: (§1)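 Approximately 10 days after treatment in the greenhouse, plants were compared with untreated controls and given a 0–100 visual injury rating. Applications: preemergence directed soil spray; postemergence on 2–10 cm plants at the one- to two-leaf stage.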
# wheat = test: Test A pre-/postemergence herbicide test; assay type: in vivo, Triticum aestivum; settings: Postemergence; for Plant response rating, Wheat: 125 g ai/ha, 0 to 100 scale, 0 is no effect, 100 is complete control; for Wheat plant response rating (0 to 100 scale, 0 is no effect, 100 is complete control): 500 g ai/ha
# Outline: as §1
# corn = test: Test A pre-/postemergence herbicide test; assay type: in vivo, Zea mays; settings: Postemergence; for Plant response rating, Corn: 125 g ai/ha, 0 to 100 scale, 0 is no effect, 100 is complete control; for Corn plant response rating (0 to 100 scale, 0 is no effect, 100 is complete control): 500 g ai/ha
# Outline: as §1
# ryegrass, Italian = test: Test A pre-/postemergence herbicide test; assay type: in vivo, Lolium multiflorum; settings: for Plant response rating, Ryegrass, Italian: 0 to 100 scale
# Outline: as §1
# barnyardgrass [1] = test: Test C flooded paddy test; assay type: in vivo, Echinochloa crus-galli; settings: Flood
# Outline: (§2)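 Visual injury scored against controls after 13 to 15 days in the greenhouse, using 0 (no effect) to 100 (complete control). Test compounds went straight into paddy water held 3 cm above the soil surface on 2-leaf-stage plants, with that flood depth maintained for the whole test.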
# kochia = test: Test A pre-/postemergence herbicide test; assay type: in vivo, Kochia scoparia; settings: for Plant response rating, Kochia: 0 to 100 scale
# Outline: as §1
# blackgrass = test: Test A postemergence herbicide test; assay type: in vivo, Alopecurus myosuroides; settings: for Plant response rating, Blackgrass: 125 g ai/ha, 0 to 100 scale, 0 is no effect, 100 is complete control; for Blackgrass plant response rating (0 to 100 scale, 0 is no effect, 100 is complete control): 500 g ai/ha
# Outline: (§3)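 Young potted plants in a loam–sand mix, one- to two-leaf stage and 2–10 cm tall, receive the test chemical postemergence and stay in a greenhouse for approximately 10 days. Injury is then judged by eye against untreated plants, scored 0 (none) to 100 (complete control).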
# giant foxtail = test: Test A pre-/postemergence herbicide test; assay type: in vivo, Setaria faberii; settings: for Plant response rating, Foxtail, Giant: 0 to 100 scale
# Outline: as §1
# barnyardgrass [2] = test: Test A pre-/postemergence herbicide test; assay type: in vivo, Echinochloa crus-galli; settings: for Plant response rating, Barnyardgrass: 0 to 100 scale
# Outline: as §1
# ducksalad = test: Test C flooded paddy test; assay type: in vivo, Heteranthera limosa; settings: Flood
# Outline: as §2
# sedge, umbrella = test: Test C flooded paddy test; assay type: in vivo, Cyperus difformis; settings: Flood
# Outline: as §2
# pigweed = test: Test A pre-/postemergence herbicide test; assay type: in vivo, Amaranthus retroflexus; settings: for Plant response rating, Pigweed: 0 to 100 scale
# Outline: as §1
# galium = test: Test A postemergence herbicide test; assay type: in vivo, Galium aparine; settings: for Plant response rating, Galium: 125 g ai/ha, 0 to 100 scale, 0 is no effect, 100 is complete control; for Galium plant response rating (0 to 100 scale, 0 is no effect, 100 is complete control): 500 g ai/ha
# Outline: as §3
# rice = test: Test C flooded paddy test; assay type: in vivo, Oryza sativa; settings: Flood
# Outline: as §2
# [3] = 125 g ai/ha, visual rating, 0 no effect, 100 complete control, approximately 10 days, preemergence
# [4] = Postemergence, 125 g ai/ha, 0 is no effect, 100 is complete control
# [5] = preemergence, 500 g ai/ha, 0 is no effect and 100 is complete control
# [6] = 125 g ai/ha, scale of 0 to 100 where 0 is no effect and 100 is complete control, 13 to 15 days
# [7] = 250 g ai/ha, scale of 0 to 100 where 0 is no effect and 100 is complete control, 13 to 15 days
compound,measurement,setting,value
O=C1NCC(c2cccc(C(F)F)c2)C1C(=O)Nc1ccccc1C(F)(F)F (racemic) [Compound 212],"Plant response rating, Ragweed",ragweed; [3],0
same,"Plant response rating, Ragweed",ragweed; [4],0
same,"Ragweed plant response rating (0 to 100 scale, 0 is no effect, 100 is complete control)","ragweed; Postemergence, 500 g ai/ha",20
same,"Plant response rating, Ragweed",ragweed; [5],50
same,"Plant response rating, Wheat",wheat,0
same,"Wheat plant response rating (0 to 100 scale, 0 is no effect, 100 is complete control)",wheat,70
same,"Plant response rating, Corn",corn,0
same,"Corn plant response rating (0 to 100 scale, 0 is no effect, 100 is complete control)",corn,50
same,"Plant response rating, Ryegrass, Italian","ryegrass, Italian; [3]",0
same,"Plant response rating, Ryegrass, Italian","ryegrass, Italian; [4]",0
same,"Ryegrass, Italian plant response rating (0 to 100 scale, 0 is no effect, 100 is complete control)","ryegrass, Italian; Postemergence, 500 g ai/ha",0
same,"Plant response rating, Ryegrass, Italian","ryegrass, Italian; [5]",30
same,"Plant response rating, Barnyardgrass",barnyardgrass [1]; [6],0
same,"Plant response rating, Barnyardgrass",barnyardgrass [1]; [7],15
same,"Plant response rating, Barnyardgrass","barnyardgrass [1]; 500 g ai/ha, scale 0 to 100",40
same,"Plant response rating, Barnyardgrass","barnyardgrass [1]; 1000 g ai/ha, scale 0 to 100",65
same,"Plant response rating, Kochia",kochia; [3],0
same,"Plant response rating, Kochia",kochia; [4],0
same,"Kochia plant response rating (0 to 100 scale, 0 is no effect, 100 is complete control)","kochia; Postemergence, 500 g ai/ha",20
same,"Plant response rating, Kochia",kochia; [5],20
same,"Plant response rating, Blackgrass",blackgrass,40
same,"Blackgrass plant response rating (0 to 100 scale, 0 is no effect, 100 is complete control)",blackgrass,60
same,"Plant response rating, Foxtail, Giant",giant foxtail; [3],70
same,"Plant response rating, Foxtail, Giant",giant foxtail; [4],60
same,"Foxtail, Giant plant response rating (0 to 100 scale, 0 is no effect, 100 is complete control)","giant foxtail; Postemergence, 500 g ai/ha",90
same,"Plant response rating, Foxtail, Giant",giant foxtail; [5],90
same,"Plant response rating, Barnyardgrass",barnyardgrass [2]; [3],60
same,"Plant response rating, Barnyardgrass",barnyardgrass [2]; [4],60
same,"Barnyardgrass plant response rating (0 to 100 scale, 0 is no effect, 100 is complete control)","barnyardgrass [2]; Postemergence, 500 g ai/ha",90
same,"Plant response rating, Barnyardgrass",barnyardgrass [2]; [5],90
same,"Plant response rating, Ducksalad",ducksalad; [6],0
same,"Plant response rating, Ducksalad",ducksalad; [7],70
same,"Plant response rating, Ducksalad","ducksalad; 500 g ai/ha, scale 0 to 100",75
same,"Plant response rating, Ducksalad","ducksalad; 1000 g ai/ha, scale 0 to 100",100
same,"Plant response rating, Sedge, Umbrella","sedge, umbrella; [6]",0
same,"Plant response rating, Sedge, Umbrella","sedge, umbrella; [7]",0
same,"Plant response rating, Sedge, Umbrella","sedge, umbrella; 500 g ai/ha, scale 0 to 100",0
same,"Plant response rating, Sedge, Umbrella","sedge, umbrella; 1000 g ai/ha, scale 0 to 100",0
same,"Plant response rating, Pigweed",pigweed; [3],0
same,"Plant response rating, Pigweed",pigweed; [4],0
same,"Pigweed plant response rating (0 to 100 scale, 0 is no effect, 100 is complete control)","pigweed; Postemergence, 500 g ai/ha",0
same,"Plant response rating, Pigweed",pigweed; [5],0
same,"Plant response rating, Galium",galium,50
same,"Galium plant response rating (0 to 100 scale, 0 is no effect, 100 is complete control)",galium,60
same,"Plant response rating, Rice",rice; [6],0
same,"Plant response rating, Rice",rice; [7],0
same,"Plant response rating, Rice","rice; 500 g ai/ha, scale 0 to 100",0
same,"Plant response rating, Rice","rice; 1000 g ai/ha, scale 0 to 100",0
O=C1NC[C@@H](c2cccc(C(F)(F)F)c2)[C@@H]1C(=O)Nc1cccc(F)c1F [Compound 205],"Plant response rating, Ragweed",ragweed; [3],0
same,"Plant response rating, Ragweed",ragweed; [4],0
same,"Ragweed plant response rating (0 to 100 scale, 0 is no effect, 100 is complete control)","ragweed; Postemergence, 500 g ai/ha",0
same,"Plant response rating, Ragweed",ragweed; [5],30
same,"Plant response rating, Wheat",wheat,0
same,"Wheat plant response rating (0 to 100 scale, 0 is no effect, 100 is complete control)",wheat,40
same,"Plant response rating, Corn",corn,0
same,"Corn plant response rating (0 to 100 scale, 0 is no effect, 100 is complete control)",corn,0
same,"Plant response rating, Ryegrass, Italian","ryegrass, Italian; [3]",0
same,"Plant response rating, Ryegrass, Italian","ryegrass, Italian; [4]",0
same,"Ryegrass, Italian plant response rating (0 to 100 scale, 0 is no effect, 100 is complete control)","ryegrass, Italian; Postemergence, 500 g ai/ha",0
same,"Plant response rating, Ryegrass, Italian","ryegrass, Italian; [5]",20
same,"Plant response rating, Barnyardgrass",barnyardgrass [1]; [6],0
same,"Plant response rating, Barnyardgrass",barnyardgrass [1]; [7],20
same,"Plant response rating, Barnyardgrass","barnyardgrass [1]; 500 g ai/ha, scale 0 to 100",30
same,"Plant response rating, Barnyardgrass","barnyardgrass [1]; 1000 g ai/ha, scale 0 to 100",45
same,"Plant response rating, Kochia",kochia; [3],20
same,"Plant response rating, Kochia",kochia; [4],0
same,"Kochia plant response rating (0 to 100 scale, 0 is no effect, 100 is complete control)","kochia; Postemergence, 500 g ai/ha",40
same,"Plant response rating, Kochia",kochia; [5],50
same,"Plant response rating, Blackgrass",blackgrass,0
same,"Blackgrass plant response rating (0 to 100 scale, 0 is no effect, 100 is complete control)",blackgrass,70
same,"Plant response rating, Foxtail, Giant",giant foxtail; [3],60
same,"Plant response rating, Foxtail, Giant",giant foxtail; [4],70
same,"Foxtail, Giant plant response rating (0 to 100 scale, 0 is no effect, 100 is complete control)","giant foxtail; Postemergence, 500 g ai/ha",90
same,"Plant response rating, Foxtail, Giant",giant foxtail; [5],90
same,"Plant response rating, Barnyardgrass",barnyardgrass [2]; [3],30
same,"Plant response rating, Barnyardgrass",barnyardgrass [2]; [4],40
same,"Barnyardgrass plant response rating (0 to 100 scale, 0 is no effect, 100 is complete control)","barnyardgrass [2]; Postemergence, 500 g ai/ha",70
same,"Plant response rating, Barnyardgrass",barnyardgrass [2]; [5],80
same,"Plant response rating, Ducksalad",ducksalad; [6],0
same,"Plant response rating, Ducksalad",ducksalad; [7],0
same,"Plant response rating, Ducksalad","ducksalad; 500 g ai/ha, scale 0 to 100",50
same,"Plant response rating, Ducksalad","ducksalad; 1000 g ai/ha, scale 0 to 100",65
same,"Plant response rating, Sedge, Umbrella","sedge, umbrella; [6]",0
same,"Plant response rating, Sedge, Umbrella","sedge, umbrella; [7]",0
same,"Plant response rating, Sedge, Umbrella","sedge, umbrella; 500 g ai/ha, scale 0 to 100",0
same,"Plant response rating, Sedge, Umbrella","sedge, umbrella; 1000 g ai/ha, scale 0 to 100",0
same,"Plant response rating, Pigweed",pigweed; [3],0
same,"Plant response rating, Pigweed",pigweed; [4],0
same,"Pigweed plant response rating (0 to 100 scale, 0 is no effect, 100 is complete control)","pigweed; Postemergence, 500 g ai/ha",30
same,"Plant response rating, Pigweed",pigweed; [5],20
same,"Plant response rating, Galium",galium,30
same,"Galium plant response rating (0 to 100 scale, 0 is no effect, 100 is complete control)",galium,60
same,"Plant response rating, Rice",rice; [6],0
same,"Plant response rating, Rice",rice; [7],0
same,"Plant response rating, Rice","rice; 500 g ai/ha, scale 0 to 100",0
same,"Plant response rating, Rice","rice; 1000 g ai/ha, scale 0 to 100",0
